Entries after “also recorded” stand apart in the source; their conditions may differ.
Experiments:
COX-2 = settings: cited from earlier work
[1] = tested on: YHES cells pretreated with H2O2; test: H2O2-induced cell proliferation, MTT assay; type: cell-based, human; settings: 100 μM, H2O2 1 μM, 48 hours, vs H2O2 only
Procedure: MTT assay was performed after 48 hours of treatment.
(§1) The YHES cells were harvested by trypsinization and seeded in 96-well plate at ˜1×10^4 cells/well. The cells were allowed to attach to the plate for overnight at 37° C. with 5% C02 in a humidified incubator. Then they were pretreated with physiological concentration of E2 (10^-9M) and P (10^-7M) for 24 hr to maintain hormonal responsiveness. […] Cell growth was valuated by the MTT assay (ATCC, Manassas, Va.). MTT assay was performing according to the manufacturer's instructions, and in triplicate to generate mean values. Cell numbers in the untreated control were arbitrarily assigned as 1. The relative cell growth was expressed as fold increase/decrease relative to the control. Data were presented as mean values from three independently repeated experiments.
The addition of H202 was meant to mimic the oxidative stress as reported in endometriosis. […] RU486 suppressed cell proliferation by 75% at the concentration of 100 μM.

[2] = tested on: endometrial stromal cells; settings: in vitro; cited from earlier work
endometrial cells = settings: immortalized human endometrial stromal cells; cited from earlier work
endometriotic cells = test: Sensitivity of endometriotic versus endometrial cells to TSA (unpublished observation); type: cell-based; settings: Wu and Guo
[3] = tested on: YHES cells (immortalized human endometrial stromal cell line); test: MTT cell proliferation assay in YHES cells; type: cell-based; settings: 48 hr
Procedure: An immortalized human endometrial stromal cell line was maintained following Krikun et al. (Krikun et al. 2004 Endocrinology 145:2291-6). Cells were maintained in phenol red-free DMEM/F12 (Gibco, CA) medium supplemented with 10% charcoal-dextran stripped FBS (Biomeda, CA), 1 μl/ml sodium pyruvate (Gibco, CA) and 1× Pen/Strep/Fungizone (Gibco, CA), at 37° C. with 5% C02 in a humidified incubator.
as §1

FasL = FasL mRNA expression by RT-PCR in treated YHES cells; type: cell-based, human
Procedure: (§2) The YHES cells were harvested by trypsinization and seeded in 12-well at 5×10^4 cells/well plates and were pretreated with E2 and P as described above. […] Total RNA was isolated from treated cells using TRIzol reagent (Invitrogen, Carlsbad, Calif.) according to the manufacturer's instructions. The integrity of total RNA was inspected on an agarose gel. One microgram of total RNA from each sample was treated with DNase I to remove potential DNA contamination and then reverse-transcribed using Superscript II Reverse Transcriptase (Invitrogen). First-strand cDNA obtained from RNA samples was stored at −80° C. until use. To measure the mRNA expression levels of AR, PR-A, PR-B, Fas and FasL in each cell culture, semi-quantitative PCR analysis was performed.
(§3) Quantitative real-time RT-PCR was carried out on an ABI 7900 DNA sequencer (Applied Biosystems), and monitored by SYBR Green I (Qiagen, Valencia, Calif.). The PCR products of the expected size were visualized on a 0.8% agarose gel. The relative mRNA level of each gene was calculated using relative quantitation of gene expression (Applied Biosystems, Foster City, Calif.) with 18s as an endogenous control. The reproducibility of the quantitative measurements was evaluated by two independent cDNA syntheses. The means and standard deviations of the replicated measurements were calculated and presented as mean ±s.d.

AR [4] = test: AR mRNA expression by RT-PCR in treated YHES cells; type: cell-based, human
Procedure: as §2, §3

PR-B = PR-B mRNA expression by RT-PCR in treated YHES cells; type: cell-based, human
Procedure: as §2, §3

AR [5] = test: Western blot of AR protein in treated YHES cells; type: cell-based, human; settings: 16 hrs; TSA 10 μM, CDB 100 μM, NAC 10 mM
Procedure: Western blot analysis was performed to measure protein expression of β-actin, ERα, ERβ, and AR. […] Whole cell lysate was prepared as previously described (44) by using RIPA lysis buffer containing 50 mM Tris, pH 7.4, 150 mM NaCl, 12 mM EDTA, 1% Triton X-100, 0.5% sodium deoxycholate, and 0.1% SDS. To avoid degradation, a protease inhibitor cocktail III (Sigma) was added at 2%. Total protein was quantified using a BCA protein assay kit (Pierce, Rockford, Ill.). Ten microgram of total protein was separated by electrophoresis on 10% SDS-polyacrylamide gels. The protein was then transferred onto PVDF membranes (Milipore, Bedford, Mass.). […] The blot was then subsequently incubated with primary antibody rabbit anti-human ERα (Santa Cruz Biotechnology, CA), rabbit anti-human ERβ (Zymed Laboratories, South San Francisco, Calif.), rabbit anti-β-actin (Cell Signaling Technology, Beverly, Mass.), or rabbit ant-human AR (Santa Cruz Biotechnology, CA), respectively, in blocking solution (5% nonfat dry milk plus PBS) for 2 hr at room temperature. After washing with PBS plus 0.5% Tween-20, the membranes were then incubated with the secondary antibody goat anti-rabbit IgG (H+L)-HRP (Santa Cruz Biotechnology, CA) at 1:8000 dilution in blocking solution for 2 h at room temperature. […]

Fas = Fas mRNA expression by RT-PCR in treated YHES cells; type: cell-based, human; settings: TSA 10 μM, time not stated
Procedure: as §2, §3

YHES cells = test: Long-term culture and morphology after treatment; type: cell-based, human
Description: The micrographs of the first two rows were taken using 20× magnification, and those of the third row were taken using 10× magnification. The micrographs of the first row and the first two micrographs of second row were obtained using differential inference contrast (DIC) optic; the others were obtained without the DIC optic. […]

PR-A = PR-A mRNA expression by RT-PCR in treated YHES cells; type: cell-based, human
Procedure: as §2, §3

[6] = 8 h, 18 h and 36 h, TSA 10 μM, CDB 100 μM, NAC 10 mM, semi-quantitative RT-PCR

**Q.** With `CC(/C=C/C(=O)NO)=C\[C@@H](C)C(=O)c1ccc(N(C)C)cc1` [TSA, trichostatin A] as the molecule, how does the “effect on IL-1β-induced COX-2 expression” value (COX-2) read?
**A.** Its value is “suppresses IL-1β-induced COX-2 expression”.

**Q.** And the “suppression of H2O2-induced cell proliferation” value [1]?
**A.** Its value is 50%.

**Q.** And the effect on proliferation [2]?
**A.** Its effect on proliferation is “suppresses proliferation of endometrial stromal cells; also recorded: suppressing proliferation of endometrial and endometriotic cells in vitro”.

**Q.** What about the “effect on cell cycle” value (endometrial cells) of the same molecule?
**A.** Its value is “induce cell cycle arrest”.

**Q.** What about the “sensitivity of endometriotic cells relative to endometrial cells” value (endometriotic cells) of the same molecule?
**A.** The value was “over 100 fold”.

**Q.** And the “reduction of cell proliferation as compared with controls” value ([3]; 100 μM)?
**A.** Its value is ~90%.

**Q.** And the “effect on cell proliferation” value ([3]; across 100, 10, 1, 0.1 μM)?
**A.** Its value is “strong concentration-dependent antiproliferative effect”.

**Q.** And the “increase in FasL expression as compared with the controls” value (FasL; 18 h after the treatment)?
**A.** Its value is ~25 fold.

**Q.** And the FasL expression (FasL; especially 18 and 36 h after the treatment)?
**A.** The FasL expression was “dramatic increase”.

**Q.** And the “AR mRNA expression level vs untreated control” value (AR [4]; [6])?
**A.** The value was “increased”.

**Q.** What about the “decrease of AR expression as compared with the control group” value (AR [4]; 36 h of treatment, real-time RT-PCR) of the same molecule?
**A.** Its value is “about 50%”.

**Q.** And the “PR-B mRNA expression level vs untreated control” value (PR-B; [6])?
**A.** The value was “increased”.

**Q.** What about the “PR-B expression, comparison among treatment groups” value (PR-B; overall, real-time RT-PCR) of the same molecule?
**A.** The value was “greatest increase”.

**Q.** What about the “AR protein level vs control group” value (AR [5]) of the same molecule?
**A.** The value was “highest expression”.

**Q.** And the “Fas expression vs control group” value (Fas)?
**A.** The value was “lower than the control group”.

**Q.** What about the cell morphology (YHES cells; 24 h after the treatment) of the same molecule?
**A.** Its cell morphology is “signs of apparent apoptosis”.

**Q.** What about the “recovery judged by morphology” value (YHES cells; four weeks after the treatment, TSA and RU486 at 100 μM) of the same molecule?
**A.** The value was “did not recover”.

**Q.** What about the “PR-A mRNA expression level vs untreated control” value (PR-A; [6]) of the same molecule?
**A.** The value was “increased”.

**Q.** What about the “PR-A expression, comparison among treatment groups” value (PR-A; overall, real-time RT-PCR) of the same molecule?
**A.** The value was “greatest increase”.

Source: patent US20070287676A1, “Diagnosis and treatment of endometriosis” (priority 2006, published 2007)
